The results in this text go back to EP0463592A1, “2,4- and 2,5-substituted pyridine-N-oxides, processes for their preparation and for their utilization” (HOECHST AKTIENGESELLSCHAFT, priority 1990, dated 1992).

This assay relates to durch CCl4 induzierte Leberfibrose in Ratten. In words: Effect of prolyl hydroxylase inhibitors on CCl4-induced liver fibrosis in rats: serum bilirubin, bile acids, gamma GT. The settings on record: rat serum, 20 mg/kg total daily oral dose; for Bile acids / Bilirubin / Gamma GT: CCl4 then compound, mean ± standard deviation; for Bile acids: prozentuale Verbesserung gegenüber einer ausschließlichen CCl4-Behandlung / Bilirubin: prozentuale Verbesserung gegenüber einer ausschließlichen CCl4-Behandlung / Gamma GT: prozentuale Verbesserung gegenüber einer ausschließlichen CCl4-Behandlung: value in brackets. In kind it is in vivo. The source says:
Um die effiziente Inhibitierung der Prolin-hydroxylase und der Lysin-hydroxylase durch die Verbindungen gemäß der Erfindung zu zeigen, werden die Konzentrationen von Bilirubin, Bile-Säuren und Gamma GT im Serum von • a) unbehandelten Ratten (Kontrolle), • b) mit CCl₄ behandelten Ratten, • c) Ratten, denen zuerst CCl₄ und anschließend eine Verbindung gemäß der Erfindung gegeben wurden, gemessen. (Die Methode ist beschrieben von Rouiller, C., Experimental toxic injury of the liver; in The Liver, C. Rouiller, Vol. 2, Seiten 335-476, New York, Academic Press 1964).
Die Ergebnisse sind in Tabelle 1 zusammengefaßt.

Molecules are shown by their SMILES.

Consider `COCCNC(=O)c1cc[n+]([O-])c(C(=O)NCCOC)c1` [Beispiel 1, Pyridin-2,4-dicarbonsäure-di-N,N'-(2-methoxyethyl)amid-N-oxid], for which the Bile acids stood at 97 ± 76, the Bilirubin is 6,30 ± 5,4 µm, the “Gamma GT” value is given as 4,3 ± 3,1 U/L and the “Bile acids: prozentuale Verbesserung gegenüber einer ausschließlichen CCl4-Behandlung” value came out at 0%. The “Bilirubin: prozentuale Verbesserung gegenüber einer ausschließlichen CCl4-Behandlung” value amounted to 0% and the “Gamma GT: prozentuale Verbesserung gegenüber einer ausschließlichen CCl4-Behandlung” value was 27%.

As for `COCCCNC(=O)c1cc[n+]([O-])c(C(=O)NCCCOC)c1` [Beispiel 2, Pyridin-2,4-dicarbonsäure-di-N,N'-(3-methoxypropyl)amid-N-oxid], the Bile acids is 71 ± 42, the Bilirubin is recorded as 2,90 ± 0,94 µm, the “Gamma GT” value was 3,3 ± 2,2 U/L and the “Bile acids: prozentuale Verbesserung gegenüber einer ausschließlichen CCl4-Behandlung” value was determined as 18%. The “Bilirubin: prozentuale Verbesserung gegenüber einer ausschließlichen CCl4-Behandlung” value came to 65% and the “Gamma GT: prozentuale Verbesserung gegenüber einer ausschließlichen CCl4-Behandlung” value is 59%.
